Data from ChEMBL document CHEMBL1130913, “Synthesis and antibacterial in vitro activity of novel analogues of nematophin” (1998).
Converted amounts (≈) assume the structure as drawn.

Key:
[1] = system: Staphylococcus aureus; test: In vitro inhibitory activity in iso sensitest agar against Staphylococcus aureus strain ATCC 29213; type: functional
[2] = system: Staphylococcus aureus; test: In vitro inhibitory activity in iso sensitest agar against Staphylococcus aureus strain ATCC 25923; type: functional
[3] = system: Staphylococcus intermedius; test: In vitro inhibitory activity in iso sensitest agar against Staphylococcus intermedius strain ATCC 9503; type: functional
[4] = system: Staphylococcus intermedius; test: In vitro inhibitory activity in iso sensitest agar against Staphylococcus intermedius strain ATCC 29663; type: functional
[5] = system: Staphylococcus aureus; test: In vitro inhibitory activity in iso sensitest agar against Staphylococcus aureus strain ATCC 6538; type: functional
[6] = system: Staphylococcus hyicus; test: In vitro inhibitory activity in iso sensitest agar against Staphylococcus hyicus strain ATCC 9622; type: functional
[7] = system: Staphylococcus hyicus; test: In vitro inhibitory activity in iso sensitest agar against Staphylococcus hyicus strain ATCC 9621; type: functional
[8] = system: Staphylococcus intermedius; test: In vitro inhibitory activity in iso sensitest agar against Staphylococcus intermedius strain ATCC 9503 in addition with 0.5%blood; type: functional
[9] = system: Staphylococcus aureus; test: In vitro inhibitory activity in iso sensitest agar against Staphylococcus aureus strain ATCC 6538 in addition with 5%serum; type: functional
[10] = system: Staphylococcus intermedius; test: In vitro inhibitory activity in iso sensitest agar against Staphylococcus intermedius strain ATCC 29663 in addition with 5%serum; type: functional
[11] = system: Staphylococcus hyicus; test: In vitro inhibitory activity in iso sensitest agar against Staphylococcus hyicus strain ATCC 9621 in addition with 0.5%serum; type: functional
[12] = system: Staphylococcus aureus; test: In vitro inhibitory activity in iso sensitest agar against Staphylococcus aureus strain ATCC 6538 in addition with 5%blood; type: functional
[13] = system: Staphylococcus aureus; test: In vitro inhibitory activity in iso sensitest agar against Staphylococcus aureus strain ATCC 6538 in addition with 0.5%blood; type: functional
[14] = system: Staphylococcus hyicus; test: In vitro inhibitory activity in iso sensitest agar against Staphylococcus hyicus strain ATCC 9622 in addition with 5%serum; type: functional
[15] = system: Staphylococcus intermedius; test: In vitro inhibitory activity in iso sensitest agar against Staphylococcus intermedius strain ATCC 9503 in addition with 0.5%serum; type: functional
[16] = system: Staphylococcus aureus; test: In vitro inhibitory activity in iso sensitest agar against Staphylococcus aureus strain ATCC 25923 in addition with 5%serum; type: functional
[17] = system: Staphylococcus hyicus; test: In vitro inhibitory activity in iso sensitest agar against Staphylococcus hyicus strain ATCC 9622 in addition with 0.5%blood; type: functional
[18] = system: Staphylococcus intermedius; test: In vitro inhibitory activity in iso sensitest agar against Staphylococcus intermedius strain ATCC 9503 in addition with 5%serum; type: functional
[19] = system: Staphylococcus aureus; test: In vitro inhibitory activity in iso sensitest agar against Staphylococcus aureus strain ATCC 29213 in addition with 5%serum; type: functional
[20] = system: Staphylococcus hyicus; test: In vitro inhibitory activity in iso sensitest agar against Staphylococcus hyicus strain ATCC 9621 in addition with 5%serum; type: functional
[21] = system: Staphylococcus hyicus; test: In vitro inhibitory activity in iso sensitest agar against Staphylococcus hyicus strain ATCC 9622 in addition with 5%blood; type: functional
[22] = system: Staphylococcus aureus; test: In vitro inhibitory activity in iso sensitest agar against Staphylococcus aureus strain ATCC 6538 in addition with 0.5%serum; type: functional
[23] = system: Staphylococcus hyicus; test: In vitro inhibitory activity in iso sensitest agar against Staphylococcus hyicus strain ATCC 9621 in addition with 0.5%blood; type: functional
[24] = system: Staphylococcus hyicus; test: In vitro inhibitory activity in iso sensitest agar against Staphylococcus hyicus strain ATCC 9622 in addition with 0.5%serum; type: functional
[25] = system: Staphylococcus intermedius; test: In vitro inhibitory activity in iso sensitest agar against Staphylococcus intermedius strain ATCC 9503 in addition with 5%blood; type: functional
[26] = system: Staphylococcus hyicus; test: In vitro inhibitory activity in iso sensitest agar against Staphylococcus hyicus strain ATCC 9621 in addition with 5%blood; type: functional
[27] = system: Staphylococcus aureus; test: In vitro inhibitory activity in iso sensitest agar against Staphylococcus aureus strain ATCC 6538 in addition with 5%serum
[28] = system: Staphylococcus aureus; test: In vitro inhibitory activity in iso sensitest agar against Staphylococcus aureus strain ATCC 6538 in addition with 0.5%serum
[29] = system: Staphylococcus aureus; test: In vitro inhibitory activity in iso sensitest agar against Staphylococcus aureus strain ATCC 6538 in addition with 5%blood
[30] = system: Staphylococcus hyicus; test: In vitro minimum inhibitory concentration in iso sensitest agar against Staphylococcus hyicus strain ATCC 9622; type: functional
[31] = system: Staphylococcus hyicus; test: In vitrIn vitro inhibitory activity in iso sensitest agar against Staphylococcus hyicus strain ATCC 9621; type: functional

Row | MIC [1] [µg/mL] | MIC [2] [µg/mL] | MIC [3] [µg/mL] | MIC [4] [µg/mL] | MIC [5] [µg/mL] | MIC [6] [µg/mL] | MIC [7] [µg/mL] | MIC [9] [µg/mL] | MIC [10] [µg/mL] | MIC [14] [µg/mL] | MIC [16] [µg/mL] | MIC [18] [µg/mL] | MIC [19] [µg/mL] | MIC [20] [µg/mL] | Compound | other results
1 | 0.25 (≈ 0.918 µM) | 0.25 (≈ 0.918 µM) | 1 (≈ 3.67 µM) | 2 (≈ 7.34 µM) | 0.125 (≈ 0.459 µM) | 0.03 (≈ 0.11 µM) | 0.25 (≈ 0.918 µM) | – | – | – | – | – | – | – | CC(C)CC(=O)C(=O)NCCc1c[nH]c2ccccc12 | –
2 | 0.125 (≈ 0.459 µM) | 0.125 (≈ 0.459 µM) | 2 (≈ 7.34 µM) | 8 (≈ 29.4 µM) | 0.25 (≈ 0.918 µM) | 0.5 (≈ 1.84 µM) | 1 (≈ 3.67 µM) | > 64 | 16 (≈ 58.7 µM) | > 64 | 4 (≈ 14.7 µM) | 16 (≈ 58.7 µM) | 4 (≈ 14.7 µM) | > 64 | CCC(C)C(=O)C(=O)NCCc1c[nH]c2ccccc12 (configuration not stated) | MIC [8]: 1 µg/mL (≈ 3.67 µM); MIC [11]: > 128 µg/mL; MIC [12]: > 128 µg/mL; MIC [13]: > 128 µg/mL; MIC [15]: 8 µg/mL (≈ 29.4 µM); MIC [17]: 0.125 µg/mL (≈ 0.459 µM); MIC [21]: > 128 µg/mL; MIC [22]: > 128 µg/mL; MIC [23]: 0.25 µg/mL (≈ 0.918 µM); MIC [24]: 1 µg/mL (≈ 3.67 µM); MIC [25]: > 128 µg/mL; MIC [26]: > 128 µg/mL
3 | 0.03 (≈ 0.0954 µM) | 0.03 (≈ 0.0954 µM) | 2 (≈ 6.36 µM) | 4 (≈ 12.7 µM) | 0.03 (≈ 0.0954 µM) | 0.5 (≈ 1.59 µM) | 1 (≈ 3.18 µM) | > 32 | > 32 | > 32 | 16 (≈ 50.9 µM) | > 32 | 8 (≈ 25.4 µM) | > 32 | CCC(C)C(=O)C(=O)NCCc1cn(C(C)C)c2ccccc12 (configuration not stated) | –
4 | 0.125 (≈ 0.345 µM) | 0.125 (≈ 0.345 µM) | 2 (≈ 5.52 µM) | 8 (≈ 22.1 µM) | 0.125 (≈ 0.345 µM) | 1 (≈ 2.76 µM) | 1 (≈ 2.76 µM) | > 64 | > 64 | > 64 | 16 (≈ 44.1 µM) | > 64 | 16 (≈ 44.1 µM) | > 64 | CCC(C)C(=O)C(=O)NCCc1cn(Cc2ccccc2)c2ccccc12 (configuration not stated) | –
5 | 0.015 (≈ 0.0524 µM) | 0.015 (≈ 0.0524 µM) | 0.5 (≈ 1.75 µM) | 2 (≈ 6.98 µM) | 0.015 (≈ 0.0524 µM) | 0.06 (≈ 0.21 µM) | 0.06 (≈ 0.21 µM) | > 32 | 32 (≈ 112 µM) | > 32 | 16 (≈ 55.9 µM) | – | 16 (≈ 55.9 µM) | > 32 | CCC(C)C(=O)C(=O)NCCc1cn(C)c2ccccc12 (configuration not stated) | MIC [8]: 0.06 µg/mL (≈ 0.21 µM); MIC [11]: 0.25 µg/mL (≈ 0.873 µM); MIC [12]: > 128 µg/mL; MIC [13]: 0.06 µg/mL (≈ 0.21 µM); MIC [17]: 0.03 µg/mL (≈ 0.105 µM); MIC [27]: > 32 µg/mL; MIC [21]: > 128 µg/mL; MIC [22]: 0.25 µg/mL (≈ 0.873 µM); MIC [23]: 0.03 µg/mL (≈ 0.105 µM); MIC [24]: 0.125 µg/mL (≈ 0.436 µM); MIC [28]: 2 µg/mL (≈ 6.98 µM); MIC [26]: > 128 µg/mL; MIC [29]: > 128 µg/mL
6 | 0.06 (≈ 0.172 µM) | 0.06 (≈ 0.172 µM) | 0.125 (≈ 0.359 µM) | 1 (≈ 2.87 µM) | 0.03 (≈ 0.0861 µM) | – | – | > 64 | > 64 | > 64 | > 64 | > 64 | > 64 | > 64 | CC(C)CC(=O)C(=O)NCCc1cn(-c2ccccc2)c2ccccc12 | MIC [30]: 0.015 µg/mL (≈ 0.043 µM); MIC [31]: 0.06 µg/mL (≈ 0.172 µM)
7 | 0.25 (≈ 0.795 µM) | 0.06 (≈ 0.191 µM) | 1 (≈ 3.18 µM) | 2 (≈ 6.36 µM) | 0.125 (≈ 0.398 µM) | 0.25 (≈ 0.795 µM) | 0.06 (≈ 0.191 µM) | > 64 | 32 (≈ 102 µM) | > 64 | 32 (≈ 102 µM) | 64 (≈ 204 µM) | 32 (≈ 102 µM) | > 64 | CC(C)CC(=O)C(=O)NCCc1cn(C(C)C)c2ccccc12 | –
8 | 0.03 (≈ 0.105 µM) | 0.03 (≈ 0.105 µM) | 0.5 (≈ 1.75 µM) | 2 (≈ 6.98 µM) | 0.03 (≈ 0.105 µM) | 0.03 (≈ 0.105 µM) | 0.03 (≈ 0.105 µM) | > 64 | 16 (≈ 55.9 µM) | > 64 | 16 (≈ 55.9 µM) | 32 (≈ 112 µM) | 16 (≈ 55.9 µM) | > 64 | CC(C)CC(=O)C(=O)NCCc1cn(C)c2ccccc12 | –
9 | 2 (≈ 5.52 µM) | 2 (≈ 5.52 µM) | 2 (≈ 5.52 µM) | > 64 | 1 (≈ 2.76 µM) | 2 (≈ 5.52 µM) | 1 (≈ 2.76 µM) | > 64 | > 64 | > 64 | > 64 | > 64 | > 64 | > 64 | CC(C)CC(=O)C(=O)NCCc1cn(Cc2ccccc2)c2ccccc12 | –
10 | – | – | 0.5 (≈ 1.75 µM) | – | 1 (≈ 3.49 µM) | 0.5 (≈ 1.75 µM) | 1 (≈ 3.49 µM) | – | – | – | – | – | – | – | CCC(C)C(=O)C(=O)NC(C)Cc1c[nH]c2ccccc12 (configuration not stated) | –
